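Step 1: Grow cells in 96-well plates. Step 2: Expose to compound for 48 hours at 5 concentrations. Step 3: Interpolate endpoints linearly; if unreached, use highest concentration. GI50 = concentration required for 50% inhibition of growth.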 The source made the active and inactive calls. No stated cut-off is given here; in the data, active = GI50 up to about 1.1 µM and inactive = higher.

Test systems include UO-31; SK-MEL-28; A549; KM12; SF-539; MDA-MB-231; Malme-3M; A498; SF-268; DU-145; IGROV-1; M14; HT-29; SK-MEL-2; HCC 2998; TK-10; SF-295; SK-OV-3; CCRF-CEM; OVCAR-3.
Experiment in all cases: NCI anticancer screen, dose series, 48 h

As for `COc1cc2nncc(SCc3ccc(Cl)c(Cl)c3)c2cc1OC`, the GI50 in the test on UO-31 was > 100 µM (inactive); in the test on SK-MEL-28, > 100 µM (inactive); in the test with A549, > 82.2 µM (inactive); in the test with KM12 it was > 62.7 µM (inactive); with SF-539 it was 35.6 µM (inactive); in the test with MDA-MB-231, > 100 µM (inactive). Further, the GI50 in the test on Malme-3M was > 100 µM (inactive); in the test on A498, > 100 µM (inactive); in the test on SF-268 it was > 69.5 µM (inactive); with DU-145, > 100 µM (inactive); in the test with IGROV-1 it was 99.3 µM (inactive); in the test on M14, > 35.6 µM (inactive). The GI50 was > 100 µM (inactive) in the test with HT-29; > 100 µM (inactive) in the test with SK-MEL-2; > 100 µM (inactive) in the test on HCC 2998; 82.4 µM (inactive) in the test with TK-10; > 69.3 µM (inactive) in the test with SF-295; > 71.3 µM (inactive) with SK-OV-3. Moreover, the GI50 with CCRF-CEM and with OVCAR-3 was > 100 µM (inactive) in each case.
For the compound `COC(=O)C1=C(O)C(C(=O)OC)C2CC(=O)CC1C2(C)C` (centres undefined), the GI50 in the test with UO-31, with SK-MEL-28, in the test with A549, in the test with KM12, in the test on SF-539 and with MDA-MB-231 was > 100 µM (inactive) throughout. Moreover, the GI50 in the test with Malme-3M, with A498, in the test on SF-268, with DU-145, in the test on IGROV-1 and in the test on M14 was > 100 µM (inactive) each time. Besides, the GI50 in the test with HT-29, with SK-MEL-2, in the test with HCC 2998, in the test with TK-10, in the test with SF-295 and in the test with SK-OV-3 was > 100 µM (inactive) in each case. In addition, the GI50 in the test on CCRF-CEM and in the test on OVCAR-3 was > 100 µM (inactive) in each case.
As to `O=C1C(c2ccc([N+](=O)[O-])cc2)=C(Cl)C(=O)c2c(O)cccc21`, the GI50 is 13.5 µM (inactive) with UO-31; 18.9 µM (inactive) in the test with SK-MEL-28; 97.7 µM (inactive) with A549; 25.6 µM (inactive) in the test with KM12; 20.2 µM (inactive) with SF-539; 17.1 µM (inactive) in the test on MDA-MB-231. For the same compound, the GI50 with Malme-3M is 19.6 µM (inactive); in the test on A498 it was 25.3 µM (inactive); in the test with SF-268 it was 23.1 µM (inactive); with DU-145, 20.7 µM (inactive); in the test with IGROV-1 it was 26.4 µM (inactive); in the test with M14, 21 µM (inactive). Also, the GI50 in the test with HT-29 is 21 µM (inactive); with SK-MEL-2 it was 17.9 µM (inactive); with HCC 2998 it was 52.6 µM (inactive); with TK-10, 20.2 µM (inactive); in the test on SF-295 it was > 54.1 µM (inactive); with SK-OV-3 it was 50.8 µM (inactive). Besides, the results for the GI50 in the test on CCRF-CEM and in the test with OVCAR-3 were 4.56 µM (inactive) and 17.7 µM (inactive), respectively.
`CC(C)NC(=O)OCc1c(COC(=O)NC(C)C)n(C)c2c1ccc1sccc12`: the GI50 in the test on UO-31 is 9.14 µM (inactive); in the test with SK-MEL-28 it was 18.1 µM (inactive); in the test on A549 it was > 36.6 µM (inactive); in the test with KM12, 15 µM (inactive); in the test on SF-539, 12.4 µM (inactive); in the test with MDA-MB-231 it was 20.1 µM (inactive). The GI50 is 3.15 µM (inactive) in the test on Malme-3M; 16.3 µM (inactive) with A498; 6.18 µM (inactive) in the test with SF-268; 6.78 µM (inactive) in the test with DU-145; 3.02 µM (inactive) in the test on IGROV-1; 14.1 µM (inactive) in the test on M14. Also, the GI50 in the test on HT-29 was 24.2 µM (inactive); in the test with SK-MEL-2 it was 16.4 µM (inactive); in the test on HCC 2998, 15.2 µM (inactive); in the test with TK-10, 18.6 µM (inactive); in the test on SF-295, 10 µM (inactive); in the test on SK-OV-3, 24.9 µM (inactive). Also, the GI50 in the test on CCRF-CEM was 10.2 µM (inactive); in the test with OVCAR-3, 15.7 µM (inactive).
In the case of `CNC(=O)OC(COC)CN1CCN(c2ccccc2C)CC1` (centres undefined), the GI50 in the test on UO-31, with SK-MEL-28, in the test on A549, with KM12, in the test on SF-539 and in the test on MDA-MB-231 was > 10 µM (inactive) in each case. In addition, the GI50 in the test on Malme-3M, with A498, in the test on SF-268, in the test with DU-145, with IGROV-1 and in the test on M14 was > 10 µM (inactive) each time. For the same compound, the GI50 in the test with HT-29, in the test with SK-MEL-2, in the test with HCC 2998, in the test with TK-10, in the test on SF-295 and in the test with SK-OV-3 was > 10 µM (inactive) throughout. Also, the GI50 in the test on CCRF-CEM and in the test on OVCAR-3 was > 10 µM (inactive) throughout.
For the compound `CCOC(=O)/C(=C\c1ccnc2ccccc12)P(=O)(OCC)OCC`, the GI50 in the test on SK-MEL-28 is 1.57 µM (inactive); in the test with A549, 5.31 µM (inactive); with KM12, 4.01 µM (inactive); in the test with SF-539, 1.47 µM (inactive); in the test with MDA-MB-231, 2.11 µM (inactive); in the test with Malme-3M it was 1.33 µM (inactive). Moreover, the GI50 is 1.77 µM (inactive) with A498; 2.53 µM (inactive) with SF-268; 2.71 µM (inactive) with DU-145; 1.6 µM (inactive) in the test with IGROV-1; 1.93 µM (inactive) in the test with M14; 2.16 µM (inactive) in the test with HT-29. Also, the GI50 is 2.06 µM (inactive) in the test on SK-MEL-2; 12.9 µM (inactive) in the test with HCC 2998; 4.43 µM (inactive) with TK-10; 2.99 µM (inactive) in the test with SF-295; 4.99 µM (inactive) in the test with SK-OV-3; 0.366 µM (active) with CCRF-CEM. In the test with OVCAR-3, the GI50 is 1.64 µM (inactive).
Regarding `CSC(=S)OC1CC(n2cnc3c(NC(=O)c4ccccc4)ncnc32)OC1CO[Si](C)(C)C(C)(C)C` (centres undefined), the GI50 in the test on UO-31 was 4.4 µM (inactive); with SK-MEL-28 it was 33.3 µM (inactive); with A549, 12.4 µM (inactive); in the test on KM12, 5.6 µM (inactive); in the test on SF-539, 36.3 µM (inactive); in the test with MDA-MB-231, 41.1 µM (inactive). Besides, the GI50 is 21.1 µM (inactive) with Malme-3M; 19.1 µM (inactive) in the test with A498; 30.7 µM (inactive) in the test with SF-268; 26.9 µM (inactive) in the test with DU-145; 27.2 µM (inactive) in the test with IGROV-1; 13.9 µM (inactive) with M14. The GI50 in the test on HT-29 was 9.18 µM (inactive); in the test with SK-MEL-2, 16.2 µM (inactive); in the test with HCC 2998, 9.02 µM (inactive); in the test with TK-10, 35.6 µM (inactive); with SF-295 it was 9.82 µM (inactive); in the test on SK-OV-3, 36.6 µM (inactive). The GI50 with CCRF-CEM was 3.5 µM (inactive); with OVCAR-3, 11 µM (inactive).
For `CCC1(C(=O)OC(C)(C)C)OC12C(C)CCCC2C` (centres undefined), the GI50 was 48.5 µM (inactive) with UO-31; > 100 µM (inactive) with SK-MEL-28; 34.8 µM (inactive) in the test with A549; 37.3 µM (inactive) in the test on KM12; > 100 µM (inactive) in the test on SF-539; > 100 µM (inactive) in the test on MDA-MB-231. Further, the GI50 in the test on Malme-3M was 56.2 µM (inactive); with A498 it was 57.9 µM (inactive); in the test with SF-268, 43.1 µM (inactive); with DU-145, > 100 µM (inactive); in the test with IGROV-1 it was > 100 µM (inactive); in the test with M14 it was 41.2 µM (inactive). Further, the GI50 with HT-29 is 39.5 µM (inactive); with SK-MEL-2, 44.8 µM (inactive); with HCC 2998, 18.3 µM (inactive); in the test with TK-10, 41.3 µM (inactive); in the test with SF-295 it was 38.4 µM (inactive); in the test on SK-OV-3 it was 73.6 µM (inactive). Besides, the GI50 is 18.7 µM (inactive) with CCRF-CEM and 34.3 µM (inactive) in the test on OVCAR-3.
Take `C/C(=C/CO[Si](C)(C)C(C)(C)C)C(=O)N(C)c1ccccc1I`: the GI50 was 14.8 µM (inactive) in the test on UO-31; 17.9 µM (inactive) in the test on SK-MEL-28; 16.6 µM (inactive) in the test on A549; 16.5 µM (inactive) in the test with KM12; 17.2 µM (inactive) with SF-539; 15.1 µM (inactive) in the test with MDA-MB-231. The GI50 in the test with Malme-3M is 14.3 µM (inactive); in the test with A498 it was 17.3 µM (inactive); with SF-268 it was 17.5 µM (inactive); in the test with DU-145, 18.2 µM (inactive); with IGROV-1, 16 µM (inactive); in the test with M14, 15.2 µM (inactive). Further, the GI50 in the test with HT-29 is 10 µM (inactive); in the test with SK-MEL-2, 15.7 µM (inactive); in the test with HCC 2998, 14.3 µM (inactive); with TK-10 it was 18.7 µM (inactive); in the test with SF-295 it was 16.5 µM (inactive); in the test with SK-OV-3, 18 µM (inactive). Besides, the GI50 in the test on CCRF-CEM was 15.2 µM (inactive); with OVCAR-3, 15.9 µM (inactive).
For `CN(C)CCCNC(=O)c1cn2c(ccc3sc4ccccc4c(=O)c32)n1`, the GI50 was 10.8 µM (inactive) in the test with UO-31; 5.46 µM (inactive) with SK-MEL-28; 9.14 µM (inactive) with A549; 12 µM (inactive) with KM12; 16.7 µM (inactive) in the test with SF-539; 1.31 µM (inactive) in the test on MDA-MB-231. The GI50 was 8.99 µM (inactive) with Malme-3M; 14.6 µM (inactive) in the test with A498; 3.82 µM (inactive) in the test with SF-268; 12.3 µM (inactive) in the test on DU-145; 10.6 µM (inactive) with IGROV-1; 12.9 µM (inactive) in the test with M14. For the same compound, the GI50 in the test with HT-29 is 1.3 µM (inactive); with SK-MEL-2, 21.5 µM (inactive); in the test with HCC 2998, 11.7 µM (inactive); with TK-10 it was 16.5 µM (inactive); in the test with SF-295, 5.36 µM (inactive); in the test on SK-OV-3 it was 16.9 µM (inactive). For the same compound, the GI50 is 2.05 µM (inactive) with CCRF-CEM and 10.7 µM (inactive) with OVCAR-3.
